In US20230085307A1, “PYRIDAZINONE COMPOUND AND HERBICIDE” (NISSAN CHEMICAL CORPORATION, priority 2019, published 2023):

Legend:
[1] = system: blackgrass; experiment: Test Example 5: herbicidal effect by foliage application, plastic box (Table 20, symbol J); format: in vivo, blackgrass (Alopecurus myosuroides); conditions: foliage application
Procedure, shortened: (§1)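 Sow seeds spot-wise in sterilized diluvial soil; cover with ~1.5 cm soil. Grow 14 days in greenhouse, 25° C. to 30° C. Spray foliage with emulsion diluted to predetermined amount. Rate effect after 3 weeks.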

[2] = system: persian speedwell; experiment: Test Example 5: herbicidal effect by foliage application, plastic box (Table 20, symbol R); format: in vivo, Persian speedwell (Veronica persica); conditions: foliage application
Procedure, shortened: as §1

[3] = system: Chinese sprangletop; experiment: Test Example 3: herbicidal effect by foliage application, Wagner pot (Table 18, symbol D); format: in vivo, chinese sprangletop (Leptochloa chinensis)
Procedure, shortened: (§2)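 Plants were sown in alluvial soil held under 0.1–0.5 cm standing water and grown 14 days in a greenhouse at 25–30 °C. An emulsifiable formulation, water-diluted to the set dose, was then sprayed onto the foliage, and effects were scored three weeks later using previously defined criteria.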

[4] = system: rice flat sedge; experiment: Test Example 3: herbicidal effect by foliage application, Wagner pot (Table 18, symbol E); format: in vivo, rice flat sedge (Cyperus iria)
Procedure, shortened: as §2

[5] = system: barnyard grass; experiment: Test Example 5: herbicidal effect by foliage application, plastic box (Table 20, symbol H); format: in vivo, barnyard grass (Echinochloa crus-galli); conditions: foliage application
Procedure, shortened: as §1

[6] = system: Japanese bulrush; experiment: Test Example 1: herbicidal activity, application before weed generation under submerged conditions (Table 16, symbol B); format: in vivo, Japanese bulrush (Schoenoplectus juncoides)
Procedure, shortened: (§3)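 Alluvial soil was flooded to 4 cm depth, weed seeds were sown mixed and 2.5-leaf rice seedlings were transplanted. On sowing day, the compound's emulsion, diluted in water to a set dose, was applied to the water surface. Plants grew at 25–30 °C and were scored 0–5 after three weeks.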

[7] = system: wild oat; experiment: Test Example 5: herbicidal effect by foliage application, plastic box (Table 20, symbol I); format: in vivo, wild oat (Avena fatua); conditions: foliage application
Procedure, shortened: as §1

[8] = system: late watergrass; experiment: Test Example 1: herbicidal activity, application before weed generation under submerged conditions (Table 16, symbol A); format: in vivo, late watergrass (Echinochloa oryzicola)
Procedure, shortened: as §3

[9] = system: lambsquarters; experiment: Test Example 5: herbicidal effect by foliage application, plastic box (Table 20, symbol O); format: in vivo, lambsquarters (Chenopodium album); conditions: foliage application
Procedure, shortened: as §1

[10] = system: green foxtail; experiment: Test Example 5: herbicidal effect by foliage application, plastic box (Table 20, symbol G); format: in vivo, green foxtail (Setaria viridis); conditions: foliage application
Procedure, shortened: as §1

[11] = system: barnyard grass; experiment: Test Example 3: herbicidal effect by foliage application, Wagner pot (Table 18, symbol H); format: in vivo, barnyard grass (Echinochloa crus-galli)
Procedure, shortened: as §2

[12] = system: windgrass; experiment: Test Example 5: herbicidal effect by foliage application, plastic box (Table 20, symbol L); format: in vivo, windgrass (Apera spica-venti); conditions: foliage application
Procedure, shortened: as §1

[13] = system: southern crabgrass; experiment: Test Example 5: herbicidal effect by foliage application, plastic box (Table 20, symbol F); format: in vivo, southern crabgrass (Digitaria ciliaris); conditions: foliage application
Procedure, shortened: as §1

[14] = system: Italian ryegrass; experiment: Test Example 5: herbicidal effect by foliage application, plastic box (Table 20, symbol K); format: in vivo, Italian ryegrass (Lolium multiflorum); conditions: foliage application
Procedure, shortened: as §1

[15] = system: oval-leafed pondweed; experiment: Test Example 1: herbicidal activity, application before weed generation under submerged conditions (Table 16, symbol C); format: in vivo, oval-leafed pondweed (Monochoria vaginalis)
Excerpt: [Test Example 1] Herbicidal Activity Test by Application before Weed Generation under Submerged Conditions After alluvial soil was placed into 1/10000 are of Wagner pot, water was poured and mixed to form a submerged condition having a water depth of 4 cm. Seeds of late watergrass, Japanese bulrush, and oval-leafed pondweed were sowed in a mixed manner in the aforementioned pot, and then 2.5 leaf stage rice plant seedlings were transplanted thereto. On the day of sowing seeds, the emulsion agent of the compound of the present invention prepared according to Formulation Example 2 was diluted with water so as to achieve a predetermined herbicide amount, and the diluted emulsion agent was applied to the surface of the water. The pot was placed in a greenhouse at 25° C. to 30° C. for growth of the plants. Three weeks after the herbicide application, the effect of the herbicide on each plant was evaluated according to the following criteria. Evaluation Criteria 5: Herbicidal rate of 90% or more (almost completely withered) 4: Herbicidal rate of 70% or more and less than 90% 3: Herbicidal rate of 40% or more and less than 70% 2: Herbicidal rate of 20% or more and less than 40% 1: Herbicidal rate of 5% or more and less than 20% 0: Herbicidal rate of 5% or less (almost no effect)

[16] = system: velvetleaf; experiment: Test Example 5: herbicidal effect by foliage application, plastic box (Table 20, symbol M); format: in vivo, velvetleaf (Abutilon theophrasti); conditions: foliage application
Procedure, shortened: as §1

[17] = 320 g/ha, three weeks after application
[18] = amount of applied herbicide 320 g/ha
[19] = 80 g/ha, 3 weeks after application

CCCC(=O)Oc1c(C)nn(C)c(=O)c1-c1c(-c2ccc(C(F)(F)F)cc2)sc2cc(C)c(C)cc12 [5-097]
herbicidal effect on blackgrass (J) [1, 17]: 0 (Herbicidal rate of 5% or less (almost no effect))
herbicidal effect on persian speedwell (R) [2, 17]: 0 (Herbicidal rate of 5% or less (almost no effect))
herbicidal effect on Chinese sprangletop (D) ([3]; 320 g/ha): 2 (Herbicidal rate of 20% or more and less than 40%)
herbicidal effect on rice flat sedge (E) ([4]; 320 g/ha): 1 (Herbicidal rate of 5% or more and less than 20%)
herbicidal effect on barnyard grass (H) [5, 17]: 0 (Herbicidal rate of 5% or less (almost no effect))
Herbicidal effect, B: Japanese bulrush [6, 18]: 0 (Herbicidal rate of 5% or less (almost no effect))
herbicidal effect on wild oat (I) [7, 17]: 0 (Herbicidal rate of 5% or less (almost no effect))
Herbicidal effect, A: late watergrass [8, 18]: 3 (Herbicidal rate of 40% or more and less than 70%)
herbicidal effect on lambsquarters (O) [9, 17]: 0 (Herbicidal rate of 5% or less (almost no effect))
herbicidal effect on green foxtail (G) [10, 17]: 0 (Herbicidal rate of 5% or less (almost no effect))
herbicidal effect on barnyard grass (H) ([11]; 320 g/ha): 4 (Herbicidal rate of 70% or more and less than 90%)
herbicidal effect on windgrass (L) [12, 17]: 0 (Herbicidal rate of 5% or less (almost no effect))
herbicidal effect on southern crabgrass (F) [13, 17]: 0 (Herbicidal rate of 5% or less (almost no effect))
herbicidal effect on Italian ryegrass (K) [14, 17]: 0 (Herbicidal rate of 5% or less (almost no effect))
Herbicidal effect, C: oval-leafed pondweed [15, 18]: 0 (Herbicidal rate of 5% or less (almost no effect))
herbicidal effect on velvetleaf (M) [16, 17]: 0 (Herbicidal rate of 5% or less (almost no effect))

CC#CCOc1ccc(-c2sc3ccccc3c2-c2c(O)c(C)nn(C)c2=O)cc1 [1-219]
effect on blackgrass (J) [1, 19]: 4 (Herbicidal rate of 70% or more and less than 90%)
effect on persian speedwell (R) [2, 19]: 5 (Herbicidal rate of 90% or more (almost completely withered))
herbicidal effect on D (Chinese sprangletop), rating 0-5 ([3]; 80 g/ha): 5 (Herbicidal rate of 90% or more (almost completely withered))
herbicidal effect on E (rice flat sedge), rating 0-5 ([4]; 80 g/ha): 3 (Herbicidal rate of 40% or more and less than 70%)
effect on barnyard grass (H) [5, 19]: 4 (Herbicidal rate of 70% or more and less than 90%)
Herbicidal effect on B: Japanese bulrush (grade 0-5) ([6]; 80 g/ha applied herbicide): 3 (Herbicidal rate of 40% or more and less than 70%)
effect on wild oat (I) [7, 19]: 1 (Herbicidal rate of 5% or more and less than 20%)
Herbicidal effect on A: late watergrass (grade 0-5) ([8]; 80 g/ha applied herbicide): 5 (Herbicidal rate of 90% or more (almost completely withered))
effect on lambsquarters (O) [9, 19]: 5 (Herbicidal rate of 90% or more (almost completely withered))
effect on green foxtail (G) [10, 19]: 5 (Herbicidal rate of 90% or more (almost completely withered))
herbicidal effect on H (barnyard grass), rating 0-5 ([11]; 80 g/ha): 5 (Herbicidal rate of 90% or more (almost completely withered))
effect on windgrass (L) [12, 19]: 0 (Herbicidal rate of 5% or less (almost no effect))
effect on southern crabgrass (F) [13, 19]: 3 (Herbicidal rate of 40% or more and less than 70%)
effect on Italian ryegrass (K) [14, 19]: 5 (Herbicidal rate of 90% or more (almost completely withered))
Herbicidal effect on C: oval-leafed pondweed (grade 0-5) ([15]; 80 g/ha applied herbicide): 3 (Herbicidal rate of 40% or more and less than 70%)
effect on velvetleaf (M) [16, 19]: 4 (Herbicidal rate of 70% or more and less than 90%)
